The source of these data is ChEMBL document CHEMBL4196183, “Discovery of New Allosteric Modulators of the Urotensinergic System through Substitution of the Urotensin II-Related Peptide (URP) Phenylalanine Residue” (J Med Chem, 2018).

Structures are written as SMILES.

For one assay, the target named is T1, Urotensin-2 receptor (Homo sapiens, UniProt Q9UKP6).
T1 sequence (Q9UKP6 whole entry): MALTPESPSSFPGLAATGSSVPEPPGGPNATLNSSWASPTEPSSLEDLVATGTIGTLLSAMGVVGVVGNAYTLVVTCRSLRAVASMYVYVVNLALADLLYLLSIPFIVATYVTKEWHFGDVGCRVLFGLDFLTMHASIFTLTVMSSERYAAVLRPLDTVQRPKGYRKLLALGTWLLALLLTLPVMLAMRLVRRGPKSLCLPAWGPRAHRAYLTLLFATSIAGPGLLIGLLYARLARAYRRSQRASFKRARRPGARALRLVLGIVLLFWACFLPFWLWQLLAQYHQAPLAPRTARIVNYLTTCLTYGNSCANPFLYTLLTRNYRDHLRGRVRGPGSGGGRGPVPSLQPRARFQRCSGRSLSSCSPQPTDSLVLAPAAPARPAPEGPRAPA
Put plainly: Displacement of [Na125I]-synthetic URP from human UT receptor expressed in HEK293 cell membranes incubated for 2 hrs by gamma-counting.

Assay [1] has as its target T2, Urotensin-2 receptor (Rattus norvegicus) (UniProt P49684).
T2 sequence (whole entry): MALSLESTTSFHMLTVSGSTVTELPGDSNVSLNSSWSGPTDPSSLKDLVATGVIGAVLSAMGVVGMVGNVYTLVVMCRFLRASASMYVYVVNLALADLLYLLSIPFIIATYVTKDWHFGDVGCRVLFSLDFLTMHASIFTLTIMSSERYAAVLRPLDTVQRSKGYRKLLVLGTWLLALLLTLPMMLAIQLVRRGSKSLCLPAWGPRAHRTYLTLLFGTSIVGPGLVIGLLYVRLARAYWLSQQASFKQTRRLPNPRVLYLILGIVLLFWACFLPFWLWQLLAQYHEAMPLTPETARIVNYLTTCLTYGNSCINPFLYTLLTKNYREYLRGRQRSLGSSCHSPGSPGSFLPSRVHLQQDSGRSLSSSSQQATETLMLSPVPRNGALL
Put plainly: Antagonist activity at UT receptor in Sprague-Dawley rat thoracic aortic ring assessed as reduction in urotensin-2-induced contraction by measuring Emax for human urotensin-2-induced contraction at 1 x 10^-8M uM pre-incubated for 30 mins before urotensin-2 stimulation (reference value: 101 +/- 4%). In kind it is functional.

Assay [2] has as its target T2, Urotensin-2 receptor (Rattus norvegicus). Put plainly: Antagonist activity at UT receptor in Sprague-Dawley rat thoracic aortic ring assessed as reduction in urotensin-2-induced contraction by measuring Emax for human urotensin-2-induced contraction at 1 x 10^-7M uM pre-incubated for 30 mins before urotensin-2 stimulation (reference value: 101 +/- 4%). The class given is functional.

Assay [3] shares this target. Description: Antagonist activity at UT receptor in Sprague-Dawley rat thoracic aortic ring assessed as reduction in URP-induced contraction by measuring Emax for human urotensin-2-induced contraction at 3 x 10^-10M pre-incubated for 30 mins before urotensin-2 stimulation relative to KCl-induced contraction (reference value: 107 +/- 3%). In kind it is functional.
The target is the same in assay [4]. Description: Antagonist activity at UT receptor in Sprague-Dawley rat thoracic aortic ring assessed as reduction in URP-induced contraction by measuring Emax for human urotensin-2-induced contraction at 3 x 10^-9M pre-incubated for 30 mins before urotensin-2 stimulation relative to KCl-induced contraction (reference value: 107 +/- 3%). The class given is functional.

Assay [5] has the same target. Put plainly: Antagonist activity at UT receptor in Sprague-Dawley rat thoracic aortic ring assessed as reduction in URP-induced contraction by measuring Emax for human urotensin-2-induced contraction at 1 x 10^-8M pre-incubated for 30 mins before urotensin-2 stimulation relative to KCl-induced contraction (reference value: 107 +/- 3%). In kind it is functional.
Assay [6] has the same target. Put plainly: Antagonist activity at UT receptor in Sprague-Dawley rat thoracic aortic ring assessed as reduction in URP-induced contraction by measuring Emax for human urotensin-2-induced contraction at 1 x 10^-7M pre-incubated for 30 mins before urotensin-2 stimulation relative to KCl-induced contraction (reference value: 107 +/- 3%). The class given is functional.

Assay [7] deals with T3, Urotensin-2 receptor (Homo sapiens) (UniProt Q9UKP6).
T3 sequence (whole entry): T1 sequence (Q9UKP6 whole entry)
Put plainly: Bias factor, ratio of deltalog(Tau/KA) for agonist activity at human UT receptor expressed in HEK293 cells co-expressing G12-polycistronic BRET biosensor assessed as induction of G12 activation by luminescence detection based BRET assay to deltalog(Tau/KA) for agonist activity at human UT receptor expressed in HEK293 cells co-expressing Gq-polycistronic BRET biosensor assessed as induction of Gq activation by luminescence detection based BRET assay. In kind it is functional, cell-based. (BRET reads energy transfer from a luciferase to a nearby fluorophore.)

In assay [8] the target is T3, Urotensin-2 receptor (Homo sapiens). Put plainly: Bias factor, ratio of deltalog(Tau/KA) for agonist activity at human UT receptor expressed in HEK293 cells co-expressing Gq-polycistronic BRET biosensor assessed as induction of Gq activation by luminescence detection based BRET assay to deltalog(Tau/KA) for agonist activity at human UT receptor expressed in HEK293 cells co-expressing beta-arrestin1-polycistronic BRET biosensor assessed as induction of beta-arrestin1 recruitment by luminescence detection based BRET assay. In kind it is functional, cell-based.

Assay [9] has the same target. Put plainly: Bias factor, ratio of deltalog(Tau/KA) for agonist activity at human UT receptor expressed in HEK293 cells co-expressing beta-arrestin1-polycistronic BRET biosensor assessed as induction of beta-arrestin1 recruitment by luminescence detection based BRET assay to deltalog(Tau/KA) for agonist activity at human UT receptor expressed in HEK293 cells co-expressing Gq-polycistronic BRET biosensor assessed as induction of Gq activation by luminescence detection based BRET assay. In kind it is functional, cell-based.

Assay [10] shares this target. Put plainly: Bias factor, ratio of deltalog(Tau/KA) for agonist activity at human UT receptor expressed in HEK293 cells co-expressing G12-polycistronic BRET biosensor assessed as induction of G12 activation by luminescence detection based BRET assay to deltalog(Tau/KA) for agonist activity at human UT receptor expressed in HEK293 cells co-expressing beta-arrestin1-polycistronic BRET biosensor assessed as induction of beta-arrestin1 recruitment by luminescence detection based BRET assay. In kind it is functional, cell-based.

One may read the IC50 as the concentration that gives 50% inhibition. One may read the Emax as the maximal effect, on the per cent scale that the assay sets. On to `CC(C)[C@H](NC(=O)[C@@H]1CSSC[C@H](NC(=O)[C@H](C)N)C(=O)N[C@@H](Cc2ccc(-c3ccccc3)cc2)C(=O)N[C@@H](Cc2c[nH]c3ccccc23)C(=O)N[C@@H](CCCCN)C(=O)N[C@@H](Cc2ccc(O)cc2)C(=O)N1)C(=O)O`, for which the IC50 on Urotensin-2 receptor is 5.37 nM. For the same compound, the Emax in [1] was 78%; in assay [2] it was 58%; in assay [3], 104%; in [4], 94%; in assay [5] it was 75%; in [6], 60%. Also, the fold change (FC) stood at 1.4 in assay [7], 2.8 in assay [8], 0.4 in [9] and 3.9 in [10].
For `CC(C)[C@H](NC(=O)[C@@H]1CSSC[C@H](NC(=O)[C@H](C)N)C(=O)N[C@@H](Cc2ccc(C#Cc3ccccc3)cc2)C(=O)N[C@@H](Cc2c[nH]c3ccccc23)C(=O)N[C@@H](CCCCN)C(=O)N[C@@H](Cc2ccc(O)cc2)C(=O)N1)C(=O)O`, on Urotensin-2 receptor, the IC50 is 26.9 nM. Also, the fold change (FC) in assay [7] was found to be 1.8; in assay [8], 0.9; in assay [9], 1.1; in [10] it was 1.6.
